Results on 17 compounds are retold here after patent US5583117A (priority 1993, dated 1996).

One data set has as its system isolated dog heart. The conditions noted are these: cited from earlier work.
The next data set concerns myocardial glycogen. The conditions noted are these: cited from earlier work; for myocardial glycogen: intravenous infusion.
The conditions of data set [1]: in vivo, po.
Procedure: Blood samples (0.5 ml) were withdrawn at intervals of 1, 2, 3, and 4 hours after ingestion of the compound and were processed for subsequent determination of plasma uridine content by HPLC. On a separate day, the same procedure was carried out, except that an equal molar dose (18 mg/kg--1.3 grams in a 70 kilogram subject) of uridine was ingested instead of the acyl derivative.
Data set [2] has as its system isolated rat hearts. Particulars: reperfusion after low-flow ischemia; cited from earlier work.
Data set [3] deals with isolated rat hearts. Particulars: cited from earlier work.
The test system of another data set is isolated rabbit hearts. The conditions noted are these: cited from earlier work.
A further data set has as its system myocardium. The conditions noted are these: pretreatment; 2 hours after aortic stenosis; cited from earlier work.
A further data set has as its system atrial tissue. Particulars: in vitro; cited from earlier work.
In data set [4] the test system is adrenalin-induced myocardial dystrophy. The conditions noted are these: rat, in vivo; cited from earlier work.
The test system of the next data set is heart. Particulars: cited from earlier work.
For data set [5], the system named is skeletal and cardiac muscle. Particulars: cited from earlier work.
The subject of data set [6] is isolated rat diaphragm muscle. The conditions noted are these: cited from earlier work.
The test system of another data set is adipose tissue. The conditions noted are these: cited from earlier work.
The subject of data set [7] is isolated, perfused rat liver. The conditions noted are these: in a single passage; cited from earlier work.
Another data set deals with hepatocytes. The conditions noted are these: cited from earlier work.
For data set [8], the system named is experimentally-induced seizures. Particulars: intraperitoneal injection; cited from earlier work.
For data set [9] the following is noted: cited from earlier work.
The subject of the next data set is liver function. Particulars: in vivo; cited from earlier work.
Another data set has as its system isolated rat heart. Particulars: cited from earlier work.
Another data set deals with skeletal muscles. Particulars: rat, in vivo; cited from earlier work.
Data set [10] relates to pyrimidine nucleoside phosphorylases. Particulars: rat, in vivo; cited from earlier work.
The next data set relates to brain. The conditions noted are these: in vivo; cited from earlier work.
Data set [11] deals with adrenalin-induced myocardial necrosis. The conditions noted are these: cited from earlier work; for mortality and myocardial function: ECG readings, biochemical findings, relative heart weight.
A short description of data set [12]: Bioavailability of uridine and acyl uridine derivatives in rats (plasma by HPLC). It counts as in vivo, male F344 rats. Particulars: rat, intubation into stomach, 0.28 moles/kg (printed), for at least four hours following ingestion. The text has this: Silastic catheters were implanted into the right jugular veins of anesthetized male F344 rats (Retired Breeders, 450-500 grams). After three days of recovery from surgery, the animals were placed in deep cylindrical cages, and their catheters were extended with a lengthened polyvinyl tubing, so that blood samples would be withdrawn without disturbing the rats. Basal blood samples were taken and the animals were divided into four groups, each containing four rats.

Data set [13] relates to tyrosine-alpha-ketoglutarate. The conditions noted are these: alone or in various combinations; cited from earlier work.
Data set [14] relates to central nervous system pathologies. Particulars: brain edema, cranial trauma, cerebral ischemia, chronic cerebrovascular diseases, Parkinson's disease; cited from earlier work.
The conditions of data set [15]: cited from earlier work. This is another data set of the same source.

For `Nc1ncnc2c1ncn2[C@@H]1O[C@H](CO)[C@@H](O)[C@H]1O` [adenosine], the inotropic effect entry in the data set with isolated dog heart was “negatively inotropic”.
Regarding `CC(C)NCC(O)c1ccc(O)c(O)c1` (stereo not shown) [isoproterenol], the “cardiac glycogen stores, myocardial UTP and UDP-glucose levels” value in the data set on myocardial glycogen (isoproterenol) is “depleted cardiac glycogen stores and reduced myocardial UTP and UDP-glucose levels”.
Regarding `O=c1ccn([C@@H]2O[C@H](CO)[C@@H](O)[C@H]2O)c(=O)[nH]1` [uridine], the plasma uridine level result in [1] is recorded as “exceeded 10 micromolar”. Also, in the data set on isolated rat hearts [2], the “myocardial ATP levels, total adenine nucleotide content, uridine nucleotide levels, glycogen content” value is “induced restoration”. Also, in the data set with isolated rat hearts [3] (following low-flow ischemia), the “rate of incorporation of uridine” value is reported as “increased twofold”. Also, the “myocardial uracil nucleotide content” value in the data set on isolated rat hearts [3] (perfusion) is reported as “concentration-dependent elevation”. For the same compound, in the data set on myocardial glycogen, the myocardial glycogen entry is listed as “restoration of myocardial glycogen”. In the data set on isolated dog heart, the inotropic effect entry was “positive inotropic”. In addition, the “myocardial performance, glucose uptake, glycolysis, glycogen and adenine nucleotides” value with isolated rabbit hearts (hypoxic hearts) is “increased myocardial performance, glucose uptake and glycolysis and also diminished the disappearance of glycogen and adenine nucleotides”. The “glucose uptake, glycolysis, ATP and glycogen levels, myocardial performance” value in the data set with isolated rabbit hearts (propranolol-treated hearts) was “increased glucose uptake, glycolysis, levels of ATP and glycogen, as well as myocardial performance”. In addition, in the data set on myocardium, the “decrease in maximal pressure upon aortic ligation” value is recorded as “prevented”. Also, the “contractability and extensibility of atrial tissue” value in the data set with atrial tissue is on record as “restored”. Besides, the “protective effect in adrenalin-induced myocardial dystrophy” value in data set [4] is given as “relatively ineffective”. Further, the supporting myocardial hyperfunction entry with heart (in vivo) is “relatively ineffective”. The “myocardial heart-pathology benefit of uridine in intact animals” value in the data set with heart (intact (alive and free-running) animals) is given as “no beneficial effect”. For the same compound, the “difference from controls in rats developing hypertrophy of the heart” value in the data set with heart (rat, in vivo) is recorded as “no difference”. The “glucose uptake and glycogen synthesis” value in data set [5] is “enhance glucose uptake and glycogen synthesis”. Further, in data set [6], the glucose uptake entry is “stimulate glucose uptake” and the glycogen synthesis entry is “only uridine increased glycogen synthesis”. In addition, the lipolysis result in the data set on adipose tissue is on record as “inhibited lipolysis”. For the same compound, the “degradation of infused uridine” value in [7] is “more than 90%”. For the same compound, in the data set with hepatocytes, the “incorporation of glucose into glycogen” value was “increase” and the “tissue uridine nucleotide pools” value was “expanded”. Also, the anticonvulsant effect entry in [8] was “strong protection”. Besides, in data set [9] (mouse, in vivo, po, 350 mg/kg), the “plasma levels of uridine” value is recorded as “not perturbed”. The “elevation of plasma uridine levels” value in data set [9] (mouse, in vivo, po, 3500 mg/kg) is “observed only after oral administration of high doses”. Further, in data set [9] (oral uridine, 350 mg/kg), the “time to return of plasma uracil to normal” value was 4 h.
In the case of `O=C(O)[C@H]1O[C@H](OP(=O)(O)OP(=O)(O)OC[C@H]2O[C@@H](n3ccc(=O)[nH]c3=O)[C@H](O)[C@@H]2O)[C@H](O)[C@@H](O)[C@@H]1O` [uridine-diphosphoglucuronic acid], the “improvement of liver function” value with liver function is recorded as “improve certain aspects of liver function”.
`O=C[C@H](O)[C@H](O)[C@H](O)CO` [ribose]: the myocardial glycogen result with myocardial glycogen is listed as “restoration of myocardial glycogen”.
With `Nc1nc2c(ncn2[C@@H]2O[C@H](CO)[C@@H](O)[C@H]2O)c(=O)[nH]1` [guanosine], in the data set with isolated dog heart, the inotropic effect result is listed as “positive inotropic”.
With `Nc1ccn([C@@H]2O[C@H](CO)[C@@H](O)[C@H]2O)c(=O)n1` [cytidine], the inotropic effect result with isolated dog heart is “negatively inotropic”. Besides, the “myocardial cytosine nucleotide levels” value in the data set with isolated rat heart (30 minute supply of cytidine) is listed as “significantly increased”. In the data set with isolated rat heart, the “conversion of cytidine taken up into uridine nucleotides” value is on record as “Very little”. For the same compound, the “muscular concentrations of Krebs cycle intermediates” value in the data set with skeletal muscles is “affect the muscular concentrations of Krebs cycle intermediates”. The “specific activity of liver homogenates” value in data set [10] is “increased”. For the same compound, in the data set with brain, the brain uptake entry is “not very readily taken up by the brain”.
Consider `O=c1ccn([C@@H]2O[C@H](COP(=O)([O-])[O-])[C@@H](O)[C@H]2O)c(=O)[nH]1.[Na+].[Na+]` [UMP, Sodium uridine monophosphate], for which the “mortality and myocardial function” value in data set [11] was “reduced mortality and improved myocardial function”. Further, in data set [11] (in vivo), the “prophylactic effect vs potassium orotate” value is listed as “more pronounced prophylactic effect” and the “resistance to adrenalin-induced myocardial necrosis” value is recorded as “increase the animal's resistance”.
For the compound `CC(=O)OC[C@H]1O[C@@H](n2ccc(=O)[nH]c2=O)[C@H](OC(C)=O)[C@@H]1OC(C)=O` [TAU, 2',3',5'-tri-O-acetyl uridine], in [12], the “plasma levels of uridine vs equimolar dose of uridine” value is recorded as “significantly higher for at least four hours”. In [1], the “plasma level of uridine vs equal molar dose of uridine” value was “substantially higher”, the plasma uridine level result was “exceeded 10 micromolar” and the “time uridine levels sustained in the useful therapeutic range” value is given as “at least four”.
Consider `C[C@]12CCC(=O)C=C1CC[C@@H]1[C@@H]2[C@@H](O)C[C@@]2(C)[C@H]1CC[C@]2(O)C(=O)CO` [hydrocortisone], for which the tyrosine-alpha-ketoglutarate activity result in data set [13] is listed as “increase”.
Take `Cc1cn([C@H]2C[C@H](O)[C@@H](CO)O2)c(=O)[nH]c1=O` [thymidine]: in the data set on isolated dog heart, the inotropic effect result is recorded as “positive inotropic”.
Take `O=c1ccn([C@@H]2O[C@H](COP(=O)(O)O)[C@@H](O)[C@H]2O)c(=O)[nH]1` [uridine-5'-monophosphate]: in data set [4], the “protective effect in adrenalin-induced myocardial dystrophy” value is given as “protective effect”.
For `C[N+](C)(C)CCOP(=O)(O)OP(=O)([O-])OC[C@H]1O[C@@H](n2ccc(N)nc2=O)[C@H](O)[C@@H]1O` [CDP-choline, cytidine-diphosphocholine], the therapeutic efficacy entry in [14] was “Therapeutic efficacy has been documented”. Moreover, the “time of breakdown to cytidine and choline” value in [15] (intravenous injection) was no more than 30 s. In [15] (oral), the “intact compound in circulation” value is reported as “no intact CDP-choline enters the circulation”; the “plasma cytidine and choline concentrations” value is listed as “rise”. Further, the degradation following administration entry in data set [15] (yielding cytidine, choline, and phosphate) is on record as “very rapidly degraded”.
`OC[C@H]1O[C@@H](n2cnc3c(O)ncnc32)[C@H](O)[C@@H]1O` [inosine]: the inotropic effect entry with isolated dog heart is reported as “positive inotropic”. In [6], the glucose uptake result is “stimulate glucose uptake”. For the same compound, the lipolysis result in the data set with adipose tissue is “inhibited lipolysis”.
For `O=C[C@H](O)[C@@H](O)[C@H](O)[C@H](O)CO` [glucose], the “contractability and extensibility of atrial tissue” value with atrial tissue is reported as “restored”.
On to `O=c1ccn([C@@H]2O[C@H](COP(=O)(O)OP(=O)(O)O)[C@@H](O)[C@H]2O)c(=O)[nH]1` [uridine diphosphate], for which the “improvement of liver function” value in the data set on liver function was “improve certain aspects of liver function”.
For the compound `O=C([O-])c1cc(=O)[nH]c(=O)[nH]1.[K+]` [potassium orotate], the “mortality and myocardial function” value in data set [11] is “reduced mortality and improved myocardial function”. Moreover, the “resistance to adrenalin-induced myocardial necrosis” value in [11] (in vivo) is on record as “increase the animal's resistance”.
